Drawing on patent publication US7553848B2, “Vanilloid receptor ligands and their use in treatments” (Amgen Inc., priority 2004, dated 2009), this text covers melting point for seven compounds.

A word on the melting point: it is the temperature, or range, at which the solid turns liquid.

For `CC(C)(C)c1ccc2c(c1)CN[C@H](C(=O)Nc1ccc3c(c1)OCCO3)C2.Cl`, the melting point stood at 134 °C.
Compound `CC(=O)Nc1nc2c(NC(=O)c3cc4ccc(C(F)(F)F)cc4s3)cccc2s1` registered a melting point of 285.4 to 285.9 °C.
For `CC(=O)Nc1nc2c(NC(=O)c3ccc4cc(Br)ccc4c3)cccc2s1` [Example 4, 6-Bromo-naphthalene-2-carboxylic acid (2-acetylamino-benzothiazol-4-yl)-amide] the value was 241.6 °C; for `CC(C)(C)c1ccc2cc(C(=O)Nc3ccc4c(c3)OCCO4)ncc2c1` [Example 11, 7-tert-Butyl-isoquinoline-3-carboxylic acid (2,3-dihydro-benzo[1,4]dioxin-6-yl)-amide], 154 to 157 °C.
For `O=C(Nc1ccc2c(c1)OCCO2)c1cc2ncc(C(F)(F)F)cc2s1` [Example 12, 6-Trifluoromethyl-thieno[3,2-b]pyridine-2-carboxylic acid (2,3-dihydro-benzo[1,4]dioxin-6-yl)-amide] the value was 247 °C.
For `O=C(Nc1ccc2c(c1)OCCO2)c1cnc2cc(C(F)(F)F)ccc2c1Cl` [Example 13, 4-Chloro-7-trifluoromethyl-quinoline-3-carboxylic acid (2,3-dihydro-benzo[1,4]dioxin-6-yl)-amide] the value was 296 °C.
Take `O=C(Nc1ccc2c(c1)OCCO2)c1ccc2cc(Br)ccc2c1` [Example 14, 6-Bromo-naphthalene-2-carboxylic acid (2,3-dihydro-benzo[1,4]dioxin-6-yl)-amide]: the melting point is 222.7 °C.
